Results taken from article PMC8843100, “Development of newly synthesised quinazolinone-based CDK2 inhibitors with potent efficacy against melanoma” (Journal of Enzyme Inhibition and Medicinal Chemistry, 2022).

Tests used:
Test in all cases: NCI-60 single dose screen, sulforhodamine B
Format in all cases: cell-based, human
[1] = tested on: A498; settings: Renal cancer A498; single dose 10^−5 M
Procedure, shortened: (§1)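 A one-concentration test: 10 µM, from dry powder dissolved in DMSO. Plates got compound one day post-seeding and were incubated 2 more days, then fixed and SRB-stained.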

[2] = tested on: A549/ATCC; settings: Non-small cell lung cancer A549/ATCC; single dose 10^−5 M
Procedure, shortened: as §1

[3] = tested on: ACHN; settings: Renal cancer ACHN; single dose 10^−5 M
Procedure, shortened: as §1

[4] = tested on: BT-549; settings: Breast cancer BT-549; single dose 10^−5 M
Procedure, shortened: as §1

[5] = tested on: COLO 205; settings: Colon cancer COLO 205; single dose 10^−5 M
Procedure, shortened: as §1

[6] = tested on: EKVX; settings: Non-small cell lung cancer EKVX; single dose 10^−5 M
Procedure, shortened: as §1

[7] = tested on: HCC-2998; settings: Colon cancer HCC-2998; single dose 10^−5 M
Procedure, shortened: as §1

[8] = tested on: HCT-116; settings: Colon cancer HCT-116; single dose 10^−5 M
Procedure, shortened: as §1

[9] = tested on: HOP-92; settings: Non-small cell lung cancer HOP-92; single dose 10^−5 M
Procedure, shortened: as §1

[10] = tested on: HT29; settings: Colon cancer HT29; single dose 10^−5 M
Procedure, shortened: as §1

[11] = tested on: MDA-MB-231/ATCC; settings: Breast cancer MDA-MB-231/ATCC; single dose 10^−5 M
Procedure, shortened: as §1

[12] = tested on: MDA-MB-435; settings: Melanoma MDA-MB-435; single dose 10^−5 M
Procedure, shortened: as §1

[13] = tested on: MOLT-4; settings: Leukaemia MOLT-4; single dose 10^−5 M
Procedure, shortened: as §1

[14] = tested on: NCI-H226; settings: Non-small cell lung cancer NCI-H226; single dose 10^−5 M
Procedure, shortened: as §1

[15] = tested on: NCI-H23; settings: Non-small cell lung cancer NCI-H23; single dose 10^−5 M
Procedure, shortened: as §1

[16] = tested on: NCI-H322M; settings: Non-small cell lung cancer NCI-H322M; single dose 10^−5 M
Procedure, shortened: as §1

[17] = tested on: NCI-H460; settings: Non-small cell lung cancer NCI-H460; single dose 10^−5 M
Procedure, shortened: as §1

[18] = tested on: NCI/ADR-RES; settings: Ovarian cancer NCI/ADR-RES; single dose 10^−5 M
Procedure, shortened: as §1

[19] = tested on: OVCAR-3; settings: Ovarian cancer OVCAR-3; single dose 10^−5 M
Procedure, shortened: as §1

[20] = tested on: OVCAR-8; settings: Ovarian cancer OVCAR-8; single dose 10^−5 M
Procedure, shortened: as §1

[21] = tested on: PC-3; settings: Prostate cancer PC-3; single dose 10^−5 M
Procedure, shortened: as §1

[22] = tested on: SF-268; settings: CNS cancer SF-268; single dose 10^−5 M
Procedure, shortened: as §1

[23] = tested on: SK-MEL-28; settings: Melanoma SK-MEL-28; single dose 10^−5 M
Procedure, shortened: as §1

[24] = tested on: SK-MEL-5; settings: Melanoma SK-MEL-5; single dose 10^−5 M
Procedure, shortened: as §1

[25] = tested on: SNB-19; settings: CNS cancer SNB-19; single dose 10^−5 M
Procedure, shortened: as §1

[26] = tested on: SR; settings: Leukaemia SR; single dose 10^−5 M
Procedure, shortened: as §1

[27] = tested on: SW-620; settings: Colon cancer SW-620; single dose 10^−5 M
Procedure, shortened: as §1

[28] = tested on: T-47D; settings: Breast cancer T-47D; single dose 10^−5 M
Procedure, shortened: as §1

[29] = tested on: TK-10; settings: Renal cancer TK-10; single dose 10^−5 M
Procedure, shortened: as §1

[30] = tested on: U251; settings: CNS cancer U251; single dose 10^−5 M
Procedure, shortened: as §1

[31] = tested on: UACC-257; settings: Melanoma UACC-257; single dose 10^−5 M
Procedure, shortened: as §1

O=C(CN1CCN(c2ccccc2)CC1)Nn1c(COc2ccccc2)nc2ccccc2c1=O [Compound 8b, N-(4-oxo-2-(phenoxymethyl)quinazolin-3(4H)-yl)-2–(4-phenylpiperazin-1-yl)acetamid]
GI% at 10^−5 M [1]: – (– means GI < 10%)
GI% at 10^−5 M [2]: – (– means GI < 10%)
GI% at 10^−5 M [3]: – (– means GI < 10%)
GI% at 10^−5 M [4]: – (– means GI < 10%)
GI% at 10^−5 M [5]: – (– means GI < 10%)
GI% at 10^−5 M [6]: – (– means GI < 10%)
GI% at 10^−5 M [7]: – (– means GI < 10%)
GI% at 10^−5 M [8]: – (– means GI < 10%)
GI% at 10^−5 M [9]: – (– means GI < 10%)
GI% at 10^−5 M [10]: – (– means GI < 10%)
GI% at 10^−5 M [11]: 10.38%
GI% at 10^−5 M [12]: – (– means GI < 10%)
GI% at 10^−5 M [13]: – (– means GI < 10%)
GI% at 10^−5 M [14]: – (– means GI < 10%)
GI% at 10^−5 M [15]: 10.01%
GI% at 10^−5 M [16]: – (– means GI < 10%)
GI% at 10^−5 M [17]: – (– means GI < 10%)
GI% at 10^−5 M [18]: – (– means GI < 10%)
GI% at 10^−5 M [19]: – (– means GI < 10%)
GI% at 10^−5 M [20]: – (– means GI < 10%)
GI% at 10^−5 M [21]: – (– means GI < 10%)
GI% at 10^−5 M [22]: – (– means GI < 10%)
GI% at 10^−5 M [23]: – (– means GI < 10%)
GI% at 10^−5 M [24]: – (– means GI < 10%)
GI% at 10^−5 M [25]: – (– means GI < 10%)
GI% at 10^−5 M [26]: – (– means GI < 10%)
GI% at 10^−5 M [27]: – (– means GI < 10%)
GI% at 10^−5 M [28]: – (– means GI < 10%)
GI% at 10^−5 M [29]: – (– means GI < 10%)
GI% at 10^−5 M [30]: – (– means GI < 10%)
GI% at 10^−5 M [31]: – (– means GI < 10%)
